Test results reported in patent US12286401B2, “Small molecules that sensitize HIV-1 infected cells to antibody dependent cellular cytotoxicity” (THE TRUSTEES OF THE UNIVERSITY OF PENNSYLVANIA, priority 2018, dated 2025).
Values joined by “and” are separate entries in the source; they are usually repeats but may differ in a detail not shown here. Equal entries are not always repeated.

Tests used:
[1] = Solubility in PBS; type: physicochemical; settings: Yes/NO
[2] = test system: HIV-1JR-FL EnvΔCT expressed at the surface of HOS cells; experiment: Cell-based ELISA (CBE), 17b readout; settings: for Fold over BNM-III-170 - 17b binding (±0.05): MCG analogs 50 μM, BNM-III-170 5 μM, 2G12 and DMSO normalized; for capacity to expose the CoRBS (17b binding, CBE): compounds 50 μM, result in words
How it was run: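 HOS cells transiently expressing cytoplasmic-tail-truncated HIV-1JR-FL Env were treated 30 min at room temperature with compounds (50 μM), sCD4 ([…]) or DMSO, then 1 h with 17b antibody. Bound 17b was detected by HRP-conjugated anti-Fc chemiluminescence; values are fold over BNM-III-170 (5 μM), normalized to 2G12 and DMSO.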

[3] = test system: HIV-1CH58TF Env on virions; experiment: Virus-based ELISA (VBE) virus capture assay; type: cell-based
[4] = test system: HIV-1CH58TF; experiment: Sensitization of viral particles to neutralization by 17b (TZM-bl); type: cell-based; settings: sub-inhibitory concentrations (20 μM (S)-MCG-IV-210)
Method: To evaluate the direct virus-neutralizing ability of the analogs, I, HIV-1CH58TF was incubated with indicated amounts of different compounds or DMSO for 1 hour at 37° C., then added to TZM-bl cells. After incubation for 48 h at 37° C., luciferase activity was measured. Relative infectivity was calculated as the percentage of the value seen in the absence of compound. To measure the ability of (S)-MCG-IV-210 to sensitize viral particles to neutralization by otherwise non-neutralizing 17b (FIG. 15F), HIV-1CH58TF was incubated with the indicated amounts of 17b in the presence of 0.5 μM (+)-BNM-III-170, 20 μM (S)-MCG-IV-210 or DMSO for 1 hour at 37° C., then added to TZM-bl cells. After incubation for 48 h at 37° C., luciferase activity was measured.
Another well-documented antiviral property of CD4mc is their capacity to sensitize viral particles to neutralization by otherwise non-neutralizing antibodies. See, Madani, 2018, Nat. Commun. 9:2363; Madani, 2014, J. Virol. 88:6542-6555; and Madani, 2016, J. Virol., 90:5031-5046. (S)-MCG-IV-210 was tested to determine if this compound shared this property.

| Structure (SMILES) | Solubility (in PBS) [1] | Fold over BNM-III-170 - 17b binding (±0.05) [2] | capacity to expose the CoRBS (17b binding, CBE) [2] | 17b-mediated capture of virions ([3]; 50 μM compound) | virion capture by the A32 and C11 Cluster A antibodies ([3]; 50 μM compound in combination with 5 μg/ml 17b) | neutralization by 17b of viral particles sensitized with compound [4] |
| --- | --- | --- | --- | --- | --- | --- |
| CS(=O)(=O)N1CCC[C@H](C(=O)Nc2ccc(F)cc2F)C1 [(S)-MCG-III-027-D04] | Yes | 0.07 fold | – | – | – | – |
| CS(=O)(=O)N1CCC[C@H](C(=O)Nc2cccc(F)c2)C1 [(S)-MCG-III-027-B03] | Yes | 0.13 fold | – | – | – | – |
| CS(=O)(=O)N1CCC[C@H](C(=O)Nc2cccc(Br)c2)C1 [(S)-MCG-III-027-B02] | Yes | 0.10 fold | – | – | – | – |
| COc1cccc(NC(=O)[C@H]2CCCN(S(C)(=O)=O)C2)c1 [(S)-MCG-III-027-B05] | Yes | 0.06 fold | – | – | – | – |
| CCS(=O)(=O)N1CCC[C@H](C(=O)Nc2ccc(Cl)c(F)c2)C1 [(S)-MCG-III-085-C01] | Yes | 0.35 fold | – | – | – | – |
| CS(=O)(=O)N1CCC[C@H](C(=O)Nc2ccccc2Cl)C1 [(S)-MCG-III-027-C01] | Yes | 0.06 fold | – | – | – | – |
| O=C(Nc1ccc(Cl)c(F)c1)C1CCCOC1 (stereo not drawn) [MCG-III-207] | Yes | 0.48 fold | – | – | – | – |
| Cn1cnc(S(=O)(=O)N2CCCC(C(=O)Nc3ccc(Cl)c(F)c3)C2)c1 (stereo not drawn) [MCG-III-157-B04] | Yes | 0.69 fold | – | – | – | – |
| CS(=O)(=O)N1CCC[C@H](C(=O)Nc2cccc(Cl)c2)C1 [(S)-MCG-III-027-B01] | Yes | 0.10 fold | – | – | – | – |
| O=C(Nc1ccc(Cl)c(F)c1)C1CCCN(S(=O)(=O)c2ccccc2)C1 (stereo not drawn) [MCG-III-157-B03] | – | 0.43 fold | – | – | – | – |
| CS(=O)(=O)N1CCC[C@H](C(=O)Nc2cccc(C(F)(F)F)c2)C1 [(S)-MCG-III-027-B04] | Yes | 0.07 fold | – | – | – | – |
| CS(=O)(=O)N1CCC[C@H](C(=O)Nc2ccc(Br)cc2)C1 [(S)-MCG-III-027-A02] | Yes | 0.36 fold | – | – | – | – |
| CCOC(=O)N1CCC[C@H](C(=O)Nc2ccc(Cl)c(F)c2)C1 [(S)-MCG-III-188-A02] | Yes | 0.53 fold | higher activity | – | – | – |
| Cn1cnc(S(=O)(=O)N2CCC[C@H](C(=O)Nc3ccc(Cl)c(F)c3)C2)c1 [(S)-MCG-III-116-A02] | – | 0.24 fold | – | – | – | – |
| COC(=O)N1CCC[C@H](C(=O)Nc2ccc(Cl)c(F)c2)C1 [(S)-MCG-III-188-A01] | Yes | 0.50 fold | higher activity | – | – | – |
| CS(=O)(=O)N1CCC[C@H](C(=O)Nc2ccc(Cl)c(F)c2)C1 [(S)-MCG-III-027-D05] | Yes | 0.46 fold and 0.58 fold | enhanced the capacity | – | – | – |
| CCCNC(=O)N1CCC[C@H](C(=O)Nc2ccc(Cl)c(F)c2)C1 [(S)-MCG-IV-031-A05] | – | 0.55 fold | higher activity | – | – | – |
| NCCNC(=O)N1CCC[C@H](C(=O)Nc2ccc(Cl)c(F)c2)C1 [(S)-MCG-IV-210] | – | 0.58 fold | higher activity | dramatic increase | permit virion capture | potently neutralized |
| CS(=O)(=O)N1CCC[C@H](C(=O)Nc2ccc(F)cc2)C1 [(S)-MCG-III-027-A03] | Yes | 0.12 fold | – | – | – | – |
